US8883782B2, “Spiro-tetracyclic ring compounds as beta-secretase modulators and methods of use” (Amgen Inc., priority 2010, dated 2014)

Assays:
[1] = target: Beta Secretase enzyme (BACE) (Homo sapiens, UniProt P56817); assay: In vitro enzymatic BACE FRET (fluorescence resonance energy transfer) assay; type: biochemical; details: average IC50, enzyme assay; read-out: BACE 1 FRET assay
How it was run: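 Cleavage of a 50 nM fluorophore/quencher peptide FRET substrate by BACE for 1 h in 0.05 M acetate pH 4.2, 10% DMSO, 100 uM genapol. Reaction stopped with Tris to neutral pH before fluorescence reading.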

[2] = test system: Aβ40 in conditioned medium of cells stably expressing Amyloid Precursor Protein (APP); assay: In vitro BACE cell-based assay (Aβ40 in conditioned medium, sandwich ELISA); details: Homo sapiens, HEK293, average IC50, HEK cells; read-out: HEK cell assay
How it was run: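 Secreted Aβ40 is captured with pAb40 and detected with biotinylated 6E10, read by europium time-resolved fluorescence. IC50 comes from percent inhibition versus concentration.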

Chain of Beta Secretase enzyme (BACE) (P56817 46-501, species assumed): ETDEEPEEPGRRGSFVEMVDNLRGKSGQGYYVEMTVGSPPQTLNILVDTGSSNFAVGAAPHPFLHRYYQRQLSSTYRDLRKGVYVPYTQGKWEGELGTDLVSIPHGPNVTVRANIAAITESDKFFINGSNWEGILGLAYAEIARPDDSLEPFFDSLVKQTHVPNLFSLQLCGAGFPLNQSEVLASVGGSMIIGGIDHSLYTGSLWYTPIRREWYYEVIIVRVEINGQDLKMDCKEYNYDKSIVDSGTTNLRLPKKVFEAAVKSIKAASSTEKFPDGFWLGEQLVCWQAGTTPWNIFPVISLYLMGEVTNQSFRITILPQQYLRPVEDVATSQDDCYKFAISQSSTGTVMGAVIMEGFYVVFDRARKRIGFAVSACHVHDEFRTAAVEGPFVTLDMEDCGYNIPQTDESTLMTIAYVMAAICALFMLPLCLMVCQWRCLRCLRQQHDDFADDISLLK

Compound	IC50 [1] [µM]	IC50 [2] [µM]
NC1=N[C@]2(CO1)c1cc(-c3cnccc3F)c(F)cc1Oc1ncc(C3=CCOCC3)cc12 [Example 645, (5R)-3-(3,6-dihydro-2H-pyran-4-yl)-8-fluoro-7-(4-fluoro-3-pyridinyl)spiro[chromeno[2,3-b]pyridine-5,4′-[1,3]oxazol]-2′-amine]	0.0531	0.291
NC1=N[C@]2(CO1)c1cc(-c3cncc(F)c3)c(F)cc1Oc1ncc(C3=CCOCC3)cc12 [Example 648, (5R)-3-(3,6-dihydro-2H-pyran-4-yl)-8-fluoro-7-(5-fluoro-3-pyridinyl)spiro[chromeno[2,3-b]pyridine-5,4′-[1,3]oxazol]-2′-amine]	0.33	2.79
Cc1ncc(-c2cc(F)c3c(c2)[C@]2(COC(N)=N2)c2cc(-c4ccc(F)nc4)ccc2O3)cn1 [Example 649, (4S)-4′-fluoro-7′-(6-fluoro-3-pyridinyl)-2′-(2-methyl-5-pyrimidinyl)spiro[1,3-oxazole-4,9′-xanthen]-2-amine]	0.0198	0.118
COc1cc(F)c2c(c1)[C@]1(CSC(N)=N1)c1cc(-c3cccnc3)ccc1O2 [Example 650, (4S)-4′-fluoro-2′-methoxy-7′-(3-pyridinyl)spiro[1,3-thiazole-4,9′-xanthen]-2-amine]	0.009	0.251
COc1ccncc1-c1ccc2c(c1)[C@@]1(COC(N)=N1)c1cc(Cl)ncc1O2 [Example 652, (5S)-3-chloro-7-(4-methoxy-3-pyridinyl)spiro[chromeno[2,3-c]pyridine-5,4′-[1,3]oxazol]-2′-amine]	1.22	2.17
COc1ccncc1-c1ccc2c(c1)[C@@]1(COC(N)=N1)c1cc(C3=CCOCC3)ncc1O2 [Example 653, (5S)-3-(3,6-dihydro-2H-pyran-4-yl)-7-(4-methoxy-3-pyridinyl)spiro[chromeno[2,3-c]pyridine-5,4′-[1,3]oxazol]-2′-amine]	0.0104	0.009
Cc1ccncc1-c1ccc2c(c1)[C@@]1(COC(N)=N1)c1cc(C3=CCOCC3)ncc1O2 [Example 654, (5S)-3-(3,6-dihydro-2H-pyran-4-yl)-7-(4-methyl-3-pyridinyl)spiro[chromeno[2,3-c]pyridine-5,4′-[1,3]oxazol]-2′-amine]	0.0061	0.013
N#Cc1ccncc1-c1ccc2c(c1)[C@@]1(COC(N)=N1)c1cc(Cl)ncc1O2 [Example 655, 3-((5S)-2′-amino-3-chlorospiro[chromeno[2,3-c]pyridine-5,4′-[1,3]oxazol]-7-yl)-4-pyridinecarbonitrile]	0.6	10
N#Cc1ccncc1-c1ccc2c(c1)[C@@]1(COC(N)=N1)c1cc(C3=CCOCC3)ncc1O2 [Example 656, 3-((5S)-2′-amino-3-(3,6-dihydro-2H-pyran-4-yl)spiro[chromeno[2,3-c]pyridine-5,4′-[1,3]oxazol]-7-yl)-4-pyridinecarbonitrile]	0.0104	0.066
NC1=N[C@@]2(CO1)c1cc(-c3cccnc3F)ccc1Oc1c2ccnc1F [Example 658, (5S)-1-fluoro-7-(2-fluoro-3-pyridinyl)spiro[chromeno[2,3-c]pyridine-5,4′-[1,3]oxazol]-2′-amine]	0.0272	0.846
CC1(C#Cc2cc(F)c3c(c2)C2(COC(N)=N2)c2cc(-c4cncc(F)c4)ncc2O3)COC1 (stereo not shown) [Example 661, 9-fluoro-3-(5-fluoro-3-pyridinyl)-7-((3-methyl-3-oxetanyl)ethynyl)spiro[chromeno[2,3-c]pyridine-5,4′-[1,3]oxazol]-2′-amine]	0.018	0.852
COc1ccc2c(c1)[C@@]1(COC(N)=N1)c1cc(-n3nccc3C)cc(F)c1O2 [Example 663, (4S)-4′-fluoro-7′-methoxy-2′-(5-methyl-1H-pyrazol-1-yl)spiro[1,3-oxazole-4,9′-xanthen]-2-amine]	0.43	8.52
COc1ccc2c(c1)[C@@]1(COC(N)=N1)c1cc(-n3ccc(C)n3)cc(F)c1O2 [Example 664, (4S)-4′-fluoro-7′-methoxy-2′-(3-methyl-1H-pyrazol-1-yl)spiro[1,3-oxazole-4,9′-xanthen]-2-amine]	1	6.67
NC1=N[C@@]2(CO1)c1cc(O)ccc1Oc1c(F)cc(-n3cccn3)cc12 [Example 665, (4S)-2-amino-5′-fluoro-7′-(1H-pyrazol-1-yl)spiro[1,3-oxazole-4,9′-xanthen]-2′-ol]	1.1	4.58
COC(C)(C)C#Cc1ccc2c(c1)[C@@]1(CSC(N)=N1)c1cc(-c3cccnc3)cnc1O2 [Example 671, (5S)-7-(3-methoxy-3-methyl-1-butyn-1-yl)-3-(3-pyridinyl)spiro[chromeno[2,3-b]pyridine-5,4′-[1,3]thiazol]-2′-amine]	0.019	0.14
CC(C)(C)C#Cc1cc2c(nc1F)Oc1ccc(-c3cccnc3F)cc1[C@]21COC(N)=N1 [Example 674, (5R)-3-(3,3-dimethyl-1-butyn-1-yl)-2-fluoro-7-(2-fluoro-3-pyridinyl)spiro[chromeno[2,3-b]pyridine-5,4′-[1,3]oxazol]-2′-amine]	0.239	2.81
NC1=N[C@@]2(CO1)c1cc(-c3ccnc(F)c3)ccc1Oc1cnc(Cl)cc12 [Example 675, (5S)-3-chloro-7-(2-fluoro-4-pyridinyl)spiro[chromeno[2,3-c]pyridine-5,4′-[1,3]oxazol]-2′-amine]	2.63	0.415

Molecules with a lower IC50 [1], results first:

IC50 [1] [µM]	IC50 [2] [µM]	Compound
0.0022	0.016	NC1=N[C@@]2(CO1)c1cc(-c3cnccc3F)c(F)cc1Oc1ncc(C3=CCOCC3)cc12 [Example 646, (5S)-3-(3,6-dihydro-2H-pyran-4-yl)-8-fluoro-7-(4-fluoro-3-pyridinyl)spiro[chromeno[2,3-b]pyridine-5,4′-[1,3]oxazol]-2′-amine]
0.0021	0.016	NC1=N[C@@]2(CO1)c1cc(-c3cncc(F)c3)c(F)cc1Oc1ncc(C3=CCOCC3)cc12 [Example 647, (5S)-3-(3,6-dihydro-2H-pyran-4-yl)-8-fluoro-7-(5-fluoro-3-pyridinyl)spiro[chromeno[2,3-b]pyridine-5,4-[1,3]oxazol]-2′-amine]
0.0019	0.037	CC#Cc1cc(F)c2c(c1)[C@]1(COC(N)=N1)c1cc(-c3cccnc3F)ccc1O2 [Example 651, (4S)-4′-fluoro-7′-(2-fluoro-3-pyridinyl)-2′-(1-propyn-1-yl)spiro[1,3-oxazole-4,9′-xanthen]-2-amine]
0.0004	0.005	NC1=N[C@@]2(CO1)c1cc(-c3cccnc3F)ccc1Oc1c2cc(C2=CCCCO2)nc1F [Example 657, (5S)-3-(3,4-dihydro-2H-pyran-6-yl)-1-fluoro-7-(2-fluoro-3-pyridinyl)spiro[chromeno[2,3-c]pyridine-5,4′-[1,3]oxazol]-2′-amine]
0.0014	0.019	NC1=N[C@@]2(CO1)c1cc(-c3cccnc3F)ccc1Oc1c2cc([C@@H]2CCCCO2)nc1F [Example 659, (5S)-1-fluoro-7-(2-fluoro-3-pyridinyl)-3-((2S)-tetrahydro-2H-pyran-2-yl)spiro[chromeno[2,3-c]pyridine-5,4′-[1,3]oxazol]-2′-amine]
0.0005	0.008	NC1=N[C@@]2(CO1)c1cc(-c3cccnc3F)ccc1Oc1c2cc([C@H]2CCCCO2)nc1F [Example 660, (5S)-1-fluoro-7-(2-fluoro-3-pyridinyl)-3-((2R)-tetrahydro-2H-pyran-2-yl)spiro[chromeno[2,3-c]pyridine-5,4′-[1,3]oxazol]-2′-amine]
0.0033	0.129	CC1(C#Cc2cc(F)c3c(c2)C2(COC(N)=N2)c2cc(-c4cccnc4F)ncc2O3)COC1 (stereo not shown) [Example 662, 9-fluoro-3-(2-fluoro-3-pyridinyl)-7-((3-methyl-3-oxetanyl)ethynyl)spiro[chromeno[2,3-c]pyridine-5,4′-[1,3]oxazol]-2′-amine]
0.0008	0.013	CC1(C#Cc2cnc3c(c2)[C@]2(CSC(N)=N2)c2cc(-c4cnccn4)ccc2O3)COC1 [Example 666, (5S)-3-((3-methyl-3-oxetanyl)ethynyl)-7-(2-pyrazinyl)spiro[chromeno[2,3-b]pyridine-5,4′-[1,3]thiazol]-2′-amine]
0.0006	0.016	CC(C)(C#N)COc1cc(F)c2c(c1)[C@]1(COC(N)=N1)c1cc(-c3cncnc3)c(F)cc1O2 [Example 667, 3-(((4S)-2-amino-4′,6′-difluoro-7′-(5-pyrimidinyl)spiro[1,3-oxazole-4,9′-xanthen]-2′-yl)oxy)-2,2-dimethylpropanenitrile]
0.0008	0.01	CC1(C)CC(c2cnc3c(c2)[C@]2(CSC(N)=N2)c2cc(-c4cncnc4)ccc2O3)=CCO1 [Example 669, (5S)-3-(2,2-dimethyl-3,6-dihydro-2H-pyran-4-yl)-7-(5-pyrimidinyl)spiro[chromeno[2,3-b]pyridine-5,4′-[1,3]thiazol]-2′-amine]
0.0009	0.009	CC1(C)C=C(c2cnc3c(c2)[C@]2(CSC(N)=N2)c2cc(-c4cncnc4)ccc2O3)CCO1 [Example 670, (5S)-3-(6,6-dimethyl-3,6-dihydro-2H-pyran-4-yl)-7-(5-pyrimidinyl)spiro[chromeno[2,3-b]pyridine-5,4′-[1,3]thiazol]-2′-amine]
0.0003	0.003	NC1=N[C@@]2(CO1)c1cc(-c3cccnc3F)ccc1Oc1c2cc(N2CC[C@@H](F)C2)nc1F [Example 673, (5S)-1-fluoro-7-(2-fluoro-3-pyridinyl)-3-((3R)-3-fluoro-1-pyrrolidinyl)spiro[chromeno[2,3-c]pyridine-5,4′-[1,3]oxazol]-2′-amine]
